Data set [1] deals with T1, human PPARγ (Homo sapiens, UniProt P37231).
T1 construct: expressed in transfected cells; host or cells: Cos-7
T1 sequence (P37231 238-503 limits assumed): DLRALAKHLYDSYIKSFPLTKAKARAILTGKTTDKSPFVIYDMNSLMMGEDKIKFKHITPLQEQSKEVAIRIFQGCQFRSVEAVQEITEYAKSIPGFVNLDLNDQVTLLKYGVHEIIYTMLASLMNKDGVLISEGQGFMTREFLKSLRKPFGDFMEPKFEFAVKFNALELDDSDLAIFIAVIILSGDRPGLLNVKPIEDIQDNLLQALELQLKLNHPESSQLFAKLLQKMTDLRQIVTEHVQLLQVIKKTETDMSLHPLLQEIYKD
As to the kind of experiment: Gene reporter (transactivation) assay, Cos-7 cells transfected with pGal4-hPPARγ.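 For all read-outs here: luciferase reporter (pG5-TK) activity normalised to cotransfected β-galactosidase, cells exposed to increasing compound concentrations in DMEM with 0.2% FCS, DMSO vehicle as control.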 The format is cell-based. As to conditions: Cos-7 cells, 24 h; for Emax: COS-7, 24 h, Emax relative to maximum activation with rosiglitazone (1 μM) = 100%, read-out: hPPAR gene reporter γGal4 (%); for EC50: GAL4 chimeric hPPARγ, read-out: hPPAR gene reporter γEC50.
Experimental: (§1) Cos-7 cells were transiently transfected with luciferase reporter plasmid (pG5-TK-pGL3) in the presence of pGal4-hPPARα or pGal4-hPPARγ (these vectors express chimeric proteins containing the Gal4 DNA-binding domain fused to the human PPARα or PPARγ ligand binding domain coding sequence) expression vector. […] Cells were transfected in OptiMEM without FCS for 3 h at 37°, using polyethylenimine (PEI), with reporter and expression plasmids, as stated in figure’s legend. The plasmid pBluescript (Stratagene, La Jolla, CA) was used as carrier DNA to set the final amount of DNA to 5.5 µg/dish. The pCMV- ß-galactosidase expression plasmid was cotransfected as a control for transfection efficiency. […] After 16 h, cells were trypsinised and seeded in 96-well plates at the density of 2 × 10^4 cells/well and incubated for 6 h in 10% FCS containing DMEM. Cells were then incubated for 24 h in DMEM containing 0.2% FCS and increasing concentrations of the compound tested or vehicle (DMSO). At the end of the experiment, cells were washed once with ice-cold PBS and the luciferase and the β–galactosidase assays were performed as described previously[20]. Cells were incubated 24 h in the presence of indicated concentrations of compound. Luciferase activity was measured and normalised to internal control β-galactosidase activity. […] EC50 were estimated using Prism software (GraphPad). All transfection experiments were performed at least three times.

For data set [2], the target named is T2, human PPARα (Homo sapiens, UniProt Q07869).
T2 construct: expressed in transfected cells; host or cells: Cos-7
T2 sequence (Q07869 239-466 limits assumed): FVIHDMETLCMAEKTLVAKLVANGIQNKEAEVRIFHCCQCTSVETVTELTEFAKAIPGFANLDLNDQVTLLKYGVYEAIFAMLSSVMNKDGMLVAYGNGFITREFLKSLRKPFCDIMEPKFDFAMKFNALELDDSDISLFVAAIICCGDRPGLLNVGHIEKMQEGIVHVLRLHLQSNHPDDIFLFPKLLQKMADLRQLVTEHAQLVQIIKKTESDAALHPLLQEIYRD
As to the kind of experiment: Gene reporter (transactivation) assay, Cos-7 cells transfected with pGal4-hPPARα.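 For all read-outs here: luciferase signal from a Gal4-driven reporter normalised to cotransfected β-galactosidase activity, cells exposed to rising compound concentrations with DMSO vehicle as control.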 The format is cell-based. Particulars: for Emax: COS-7, 24 h, Emax relative to maximum activation with WY14643 (10 µM) = 100%, read-out: hPPAR gene reporter αGal4 (%); for EC50: GAL4 chimeric hPPARα, 24 h, read-out: hPPAR gene reporter αEC50.
Experimental: as §1

In data set [3] the test system is ob/ob mice. As to the kind of experiment: In vivo ob/ob mice: glycaemia, triglyceridemia, insulinemia, body weight.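 For all read-outs here: male ob/ob mice aged 10–12 weeks, given the compound once daily by oral gavage as a 1% hydroxyethylcellulose suspension, 8–12 animals per group.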 As to conditions: oral, 4 days; for ΔBW (body weight variation between day 0 and day 4): expressed in % of rosiglitazone in the same study (= 100%), ob/ob mice; for ΔBW (body weight variation between day 0 and day 4) / Change (%) Gly (glycemia) / Change (%) Ins (insulin) / Change (%) TG (triglycerides): synthesised compounds 8.4 µMkg^−1, references 3 mgkg^−1; for Change (%) Gly (glycemia) / Change (%) Ins (insulin) / Change (%) TG (triglycerides): percent change versus control, ob/ob mice at day 4.
Experimental: The glucose- and triglyceride-lowering activities of the compounds prepared were then tested using 10–12-week-old male ob/ob mice. […] Mice had access to filtered (0.22 mm) tap water ad libitum and irradiated pelleted laboratory chow (transbreed, Special Diet Services, England) throughout the study. Compounds were prepared as a suspension in 1% hydroxyethylcellulose (HEC) for oral administration (10 mLkg^−1). The mice (n = 8–12 per group) were dosed by gavage daily between 15:00 and 17:00 for 4 days. Randomisation was performed based on glycaemia values. The body weight gain (DBW in grams) of the animals was determined by measuring the difference between body weight at the beginning and end of the study for each mouse. At day 5 between 9:00 and 11:00 the mice were weighed, and blood samples were collected into heparin-containing tubes by retro-orbital puncture (500 mL per mouse). […] Plasma samples were prepared by centrifugation (2000 g for 10 min), and stored at −20 °C. For triglycerides and insulin determination, the percent change in plasma level in the treated group was calculated relative to the mean plasma level in the vehicle-treated group. ANOVA, followed by Dunnett’s comparison test (one-tailed) was used to estimate significant differences between the plasma glycaemia, triglycerides, insulin, and DBW values between the control group and the individual compound-treated groups.

Data set [4] concerns the target T3, human PPARγ (Homo sapiens, UniProt P37231).
T3 sequence (P37231 235-505 limits assumed): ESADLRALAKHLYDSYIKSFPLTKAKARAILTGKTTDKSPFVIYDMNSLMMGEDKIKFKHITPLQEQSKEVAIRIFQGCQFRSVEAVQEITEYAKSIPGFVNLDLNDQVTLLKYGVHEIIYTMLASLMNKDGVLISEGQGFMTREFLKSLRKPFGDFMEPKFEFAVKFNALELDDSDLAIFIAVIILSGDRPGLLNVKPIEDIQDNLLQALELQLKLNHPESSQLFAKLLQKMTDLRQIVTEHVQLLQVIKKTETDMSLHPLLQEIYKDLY
Briefly: Membrane-bound PPARγ binding assay ([3H]rosiglitazone competition, filtration). Particulars: competition with [3H]rosiglitazone (4 nM), 180 min at 4 °C; read-out: Ki (nM), hPPARγ binding affinity. As for the experimental part:
The membrane-associated PPARγ was used as the biological source as previously described. Binding buffer consisted of 10 mM Tris/HCl, pH 8.2, containing 50 mM KCl and 1 mM dithiothreitol. […] Radioactivity was measured in a TopCount apparatus (Packard).

Data set [5] deals with CaCO2 cells. As to the kind of experiment: CaCo2 cell absorption (membrane permeability model). Type of data set: in vitro ADME. Particulars: percentage of absorption. As for the experimental part:
The in vivo effect of test compounds was determined by measuring glycaemia, triglyceridemia, insulinemia, and body weight using ob/ob mice (Table 3). The ob/ob mice were obese, insulin resistant with hypertriglyceridaemia and hyperglycaemia, and have been used as a rodent model of obesity-induced insulin resistance. […] As a side effect index, body weight was also measured daily, and body weight variation was calculated as a percentage of the difference in body weight between days 4 and 0. […] Benzoyl derivatives 32a, 41a and 42a were not evaluated in vivo with regard to their low absorption values with CaCO2 cells (< 25%), an in vitro model predicting membrane permeability. […] Indeed, incorporation of substituents such as methyl oxime ether and trifluoroethoxy group are benefiting for PPAR activity regulation and so for effective management of dyslipidemia without inducing body weight gain. […] The CF3 group incorporation, beyond keeping a good in vivo efficacy, provided a robust reduction of body weight induced with compound 44a, strengthening the beneficial pharmacological effect of C-H bond replacement with fluorine. Compound 44 b may be considered as a SPPARγM since this full PPARγ agonist retains the insulin-sensitizing and glucose-lowering actions while mitigating or eliminating the undesirable side effects.
A general note: Caco-2 monolayers are a common model of the intestinal barrier.

Where only a bound is given, the exact number is not on record here.

As usually defined, the melting point is the temperature of the solid-liquid transition. For orientation: Ki means the dissociation constant of the complex between target and ligand, obtained from inhibition or displacement. Consider `CCO[C@@H](Cc1ccc(OCCn2c(=O)sc3cc(/C(=N/O)c4ccccc4)ccc32)cc1)C(=O)O` [Compound 43a, (S)-3-{4-[2–(6-[(E)-hydroxyimino-phenyl-methyl]-2-oxo-benzothiazol-3-yl)-ethoxy]-phenyl}-2-ethoxypropionic acid], for which the melting point lay within 84 to 85 °C. Besides, in data set [1], the Emax was 123% and the EC50 came out at 0.016 µM. In data set [2], the Emax worked out at 153%. For the same compound, in data set [3], the “ΔBW (body weight variation between day 0 and day 4)” value (“ΔBW” for short) is on record as 113%; the “Change (%) Gly (glycemia)” value was −55%; the “Change (%) Ins (insulin)” value was −29%; the “Change (%) TG (triglycerides)” value is −33%. In addition, the Ki in data set [4] came out at 0.5 nM.

In turn, `CCOC(Cc1ccc(OCCn2c(=O)sc3cc(C(=O)c4ccccc4)ccc32)cc1)C(=O)O` (stereo not drawn) [Compound 32a, 3-{4-[2–(6-benzoyl-2-oxo-benzothiazol-3-yl)-ethoxy]-phenyl}-2-ethoxypropionic acid] yielded a melting point of 57 to 59 °C. Also, the “absorption with CaCO2 cells (CaCo2 permeability)” value (from here on “absorption with CaCO2 cells”) in data set [5] is recorded as less than 25%. In addition, in data set [1], the Emax was not below 80% and the EC50 was determined as 0.015 µM. Besides, in data set [2], the Emax was not below 80% and the EC50 came to 2.4 µM. The Ki in data set [4] was found to be 4 nM.

Consider `CCO[C@H](Cc1ccc(OCCn2c(=O)sc3cc(C(=O)c4ccccc4)ccc32)cc1)C(=O)O` [Compound 42a, (R)-3-{4-[2–(6-benzoyl-2-oxo-benzothiazol-3-yl)-ethoxy]-phenyl}-2-ethoxypropionic acid], for which the melting point was in the range of 57 to 59 °C. Besides, the “absorption with CaCO2 cells” value in data set [5] is listed as less than 25%. Besides, in data set [1], the Emax came out at 39% and the EC50 was 0.3 µM. Further, the Emax in data set [2] amounted to 0%. Besides, in data set [4], the Ki turned out to be 70 nM.

Take `CON=C(c1ccccc1)c1ccc2c(c1)sc(=O)n2CCOc1ccc(CC(OCC(F)(F)F)C(=O)O)cc1` (racemic) [Compound 40b, 3-{4-[2–(6-[(E)-methoxyimino-phenyl-methyl]-2-oxo-benzothiazol-3-yl)-ethoxy]-phenyl}-2–(2,2,2-trifluoro)ethoxypropionic acid]: the melting point is 56 to 57 °C. Further, in data set [1], the Emax was found to be 95% and the EC50 was 0.007 µM. Moreover, in data set [2], the Emax worked out at 56% and the EC50 is 0.18 µM. In addition, in data set [3], the “ΔBW” value was −70%; the “Change (%) Gly (glycemia)” value is −37%; the “Change (%) Ins (insulin)” value is recorded as −55%; the “Change (%) TG (triglycerides)” value is −54%. In data set [4], the Ki was found to be 1.3 nM.

With `CCOC(Cc1ccc(OCCn2c(=O)sc3cc(/C(=N/O)c4ccccc4)ccc32)cc1)C(=O)O` (stereo not drawn) [Compound 39a, 3-{4-[2–(6-[(E)-hydroxyimino-phenyl-methyl]-2-oxo-benzothiazol-3-yl)-ethoxy]-phenyl}-2-ethoxypropionic acid], the melting point is 84 to 85 °C. Besides, in data set [1], the Emax amounted to 91% and the EC50 was found to be 0.024 µM. Moreover, the Emax in data set [2] was found to be 129%. Moreover, in data set [3], the “ΔBW” value is listed as −10%; the “Change (%) Gly (glycemia)” value was −49%; the “Change (%) Ins (insulin)” value is reported as −34%; the “Change (%) TG (triglycerides)” value is listed as −69%. Further, the Ki in data set [4] came to 2 nM.

`CCO[C@@H](Cc1ccc(OCCn2c(=O)sc3cc(C(=O)c4ccccc4)ccc32)cc1)C(=O)O` [Compound 41a, (S)-3-{4-[2–(6-benzoyl-2-oxo-benzothiazol-3-yl)-ethoxy]-phenyl}-2-ethoxypropionic acid] yielded a melting point of 57 to 59 °C. The “absorption with CaCO2 cells” value in data set [5] is less than 25%. Besides, in data set [1], the Emax was 142% and the EC50 was 0.008 µM. In addition, in data set [2], the Emax turned out to be 166% and the EC50 was determined as 0.522 µM. Further, the Ki in data set [4] is 0.5 nM.

In the case of `CCOC(Cc1ccc(OCCn2c(=O)sc3cc(/C(=N/OC)c4ccccc4)ccc32)cc1)C(=O)O` (stereo not drawn) [Compound 40a, 3-{4-[2–(6-[(E)-methoxyimino-phenyl-methyl]-2-oxo-benzothiazol-3-yl)-ethoxy]-phenyl}-2-ethoxypropionic acid], the melting point was 151 to 152 °C. In data set [1], the Emax amounted to 87% and the EC50 amounted to 0.002 µM. Besides, in data set [2], the Emax is 159% and the EC50 stood at 0.129 µM. In addition, in data set [3], the “ΔBW” value worked out at 188%; the “Change (%) Gly (glycemia)” value is given as −58%; the “Change (%) Ins (insulin)” value is on record as −76%; the “Change (%) TG (triglycerides)” value is −83%. Also, the Ki in data set [4] was 4 nM.

`CCO[C@H](Cc1ccc(OCCn2c(=O)sc3cc(/C(=N/O)c4ccccc4)ccc32)cc1)C(=O)O` [Compound 45a, (R)-3-{4-[2–(6-[(E)-hydroxyimino-phenyl-methyl]-2-oxo-benzothiazol-3-yl)-ethoxy]-phenyl}-2-ethoxypropionic acid]: the melting point fell in the range of 84 to 85 °C. In addition, the “absorption with CaCO2 cells” value in data set [5] was determined as 31%. Moreover, in data set [1], the Emax came out at 66% and the EC50 was 0.799 µM. For the same compound, the Emax in data set [2] came out at 30%. Further, in data set [3], the “ΔBW” value was 328%; the “in vivo activity in ob/ob mice” value is “inactive”; the “Change (%) Gly (glycemia)” value is −7%; the “Change (%) Ins (insulin)” value was found to be 51%. Besides, in data set [3], the “Change (%) TG (triglycerides)” value is on record as 21%. The Ki in data set [4] amounted to 210 nM.

These data come from paper PMC7006651, “Effect of 6-Benzoyl-benzothiazol-2-one scaffold on the pharmacological profile of α-alkoxyphenylpropionic acid derived PPAR agonists” (Journal of Enzyme Inhibition and Medicinal Chemistry, 2020).
